# Laboratory results as given in ChEMBL document CHEMBL5303573, “Mapping human microbiome drug metabolism by gut bacteria and their genes” (Nature, 2019).
# Tests used:
# [1] = The drug is tested on Ruminococcus gnavus strain: ATCC29149 for biotransformation. The drug concentrations were measured before and after a 12-h incubation by liquid-chromatography-coupled mass spectrometry (LC–MS); conditions: mediterraneibacter gnavus, 2 µM
# [2] = The drug is tested on Coprococcus comes strain: ATCC27758 for biotransformation. The drug concentrations were measured before and after a 12-h incubation by liquid-chromatography-coupled mass spectrometry (LC–MS); assay type: ADME; set-up: dose 2 uM, timepoint 0 vs 12 hours; conditions: 2 µM
# [3] = The drug is tested on Eubacterium ventriosum strain: ATCC27560 for biotransformation. The drug concentrations were measured before and after a 12-h incubation by liquid-chromatography-coupled mass spectrometry (LC–MS); assay type: ADME; set-up: dose 2 uM, timepoint 0 vs 12 hours; conditions: 2 µM
# [4] = bifidobacterium adolescentis, 12 h, 2 µM
# Description: The drug is tested on Bifidobacterium adolescentis strain: ATCC 15703 for biotransformation. The drug concentrations were measured before and after a 12-h incubation by liquid-chromatography-coupled mass spectrometry (LC–MS)
# [5] = limosilactobacillus reuteri cf48-3a, 12 h, 2 µM
# Description: The drug is tested on Lactobacillus reuteri CF48-3A strain: BEI HM-102 for biotransformation. The drug concentrations were measured before and after a 12-h incubation by liquid-chromatography-coupled mass spectrometry (LC–MS)
# [6] = The drug is tested on Blautia luti strain: DSM14534 for biotransformation. The drug concentrations were measured before and after a 12-h incubation by liquid-chromatography-coupled mass spectrometry (LC–MS); assay type: ADME; set-up: dose 2 uM, timepoint 0 vs 12 hours; conditions: 2 µM
# [7] = The drug is tested on Bacteroides cellulosilyticus strain: DSM14838 for biotransformation. The drug concentrations were measured before and after a 12-h incubation by liquid-chromatography-coupled mass spectrometry (LC–MS); conditions: 2 µM
# [8] = The drug is tested on Clostridium symbiosum strain: ATCC14940 for biotransformation. The drug concentrations were measured before and after a 12-h incubation by liquid-chromatography-coupled mass spectrometry (LC–MS); conditions: 2 µM
# [9] = The drug is tested on Enterobacter cancerogenus strain: ATCC35316 for biotransformation. The drug concentrations were measured before and after a 12-h incubation by liquid-chromatography-coupled mass spectrometry (LC–MS); conditions: 2 µM
# [10] = enterocloster bolteae, 12 h, 2 µM
# Description: The drug is tested on Clostridium bolteae strain: ATCCBAA-613 for biotransformation. The drug concentrations were measured before and after a 12-h incubation by liquid-chromatography-coupled mass spectrometry (LC–MS)
# [11] = The drug is tested on Dorea formicigenerans strain: ATCC27755 for biotransformation. The drug concentrations were measured before and after a 12-h incubation by liquid-chromatography-coupled mass spectrometry (LC–MS); conditions: 2 µM
# [12] = The drug is tested on Eubacterium rectale strain: ATCC33656 for biotransformation. The drug concentrations were measured before and after a 12-h incubation by liquid-chromatography-coupled mass spectrometry (LC–MS); conditions: agathobacter rectalis, 2 µM
# [13] = The drug is tested on Bacteroides sp. WH2 strain: WH2 for biotransformation. The drug concentrations were measured before and after a 12-h incubation by liquid-chromatography-coupled mass spectrometry (LC–MS); conditions: bacteroides sp. wh2, 12 h, 2 µM
# [14] = The drug is tested on Subdoligranulum variabile strain: DSM15176 for biotransformation. The drug concentrations were measured before and after a 12-h incubation by liquid-chromatography-coupled mass spectrometry (LC–MS); conditions: 2 µM
# [15] = segatella copri, 12 h, 2 µM
# Description: The drug is tested on Prevotella copri strain: DSM18205 for biotransformation. The drug concentrations were measured before and after a 12-h incubation by liquid-chromatography-coupled mass spectrometry (LC–MS)
# [16] = The drug is tested on Bifidobacterium ruminantium strain: fecal isolate for biotransformation. The drug concentrations were measured before and after a 12-h incubation by liquid-chromatography-coupled mass spectrometry (LC–MS); conditions: 2 µM
# [17] = The drug is tested on Bacteroides xylanisolvens strain: DSM18836 for biotransformation. The drug concentrations were measured before and after a 12-h incubation by liquid-chromatography-coupled mass spectrometry (LC–MS); conditions: 2 µM
# [18] = bacteroides intestinalis, 12 h, 2 µM
# Description: The drug is tested on Bacteroides intestinalis strain: DSM17393 for biotransformation. The drug concentrations were measured before and after a 12-h incubation by liquid-chromatography-coupled mass spectrometry (LC–MS)
# [19] = The drug is tested on Providencia stuartii strain: ATCC25827 for biotransformation. The drug concentrations were measured before and after a 12-h incubation by liquid-chromatography-coupled mass spectrometry (LC–MS); conditions: 2 µM
# [20] = The drug is tested on Bacteroides ovatus strain: ATCC8483 for biotransformation. The drug concentrations were measured before and after a 12-h incubation by liquid-chromatography-coupled mass spectrometry (LC–MS); conditions: 2 µM
Compound,Bacterial Biotransformation [1],Bacterial Biotransformation [2],Bacterial Biotransformation [3],Bacterial Biotransformation [4],Bacterial Biotransformation [5],Bacterial Biotransformation [6],Bacterial Biotransformation [7],Bacterial Biotransformation [8],Bacterial Biotransformation [9],Bacterial Biotransformation [10],Bacterial Biotransformation [11],Bacterial Biotransformation [12],Bacterial Biotransformation [13],Bacterial Biotransformation [14],Bacterial Biotransformation [15],Bacterial Biotransformation [16],Bacterial Biotransformation [17],Bacterial Biotransformation [18],Bacterial Biotransformation [19],Bacterial Biotransformation [20]
CC(=O)OCC(=O)[C@@]1(O)[C@@H](C)C[C@H]2[C@@H]3CCC4=CC(=O)C=C[C@]4(C)[C@@]3(F)[C@@H](O)C[C@@]21C [BETAMETHASONE ACETATE],Compound NOT metabolized,Compound NOT metabolized,Compound NOT metabolized,Compound NOT metabolized,Compound NOT metabolized,Compound NOT metabolized,Compound NOT metabolized,Compound NOT metabolized,Compound NOT metabolized,Compound NOT metabolized,Compound NOT metabolized,Compound NOT metabolized,Compound NOT metabolized,Compound NOT metabolized,Compound NOT metabolized,,,,,
C[C@]12CCC(=O)C=C1[C@@H]1C[C@@H]1[C@H]1[C@@H]3[C@@H]4C[C@@H]4[C@@]4(CCC(=O)O4)[C@@]3(C)CC[C@@H]12 [DROSPIRENONE],Compound metabolized,,Compound NOT metabolized,Compound NOT metabolized,Compound NOT metabolized,Compound NOT metabolized,Compound NOT metabolized,Compound NOT metabolized,,Compound NOT metabolized,Compound NOT metabolized,Compound NOT metabolized,Compound NOT metabolized,Compound NOT metabolized,Compound NOT metabolized,Compound NOT metabolized,Compound metabolized,Compound NOT metabolized,,
O=C1N=C([O-])NC1(c1ccccc1)c1ccccc1.[Na+] [PHENYTOIN SODIUM],Compound NOT metabolized,Compound NOT metabolized,,Compound NOT metabolized,Compound NOT metabolized,,Compound metabolized,Compound metabolized,,Compound NOT metabolized,Compound NOT metabolized,,Compound metabolized,Compound NOT metabolized,Compound NOT metabolized,Compound metabolized,Compound NOT metabolized,Compound NOT metabolized,Compound NOT metabolized,Compound metabolized
CS(=O)(=O)O.OC(CCN1CCCCC1)(c1ccccc1)c1ccccc1 [PRIDINOL METHANESULFONATE],Compound NOT metabolized,Compound NOT metabolized,Compound NOT metabolized,Compound NOT metabolized,Compound NOT metabolized,Compound NOT metabolized,Compound NOT metabolized,Compound NOT metabolized,,Compound NOT metabolized,Compound NOT metabolized,Compound NOT metabolized,Compound NOT metabolized,Compound NOT metabolized,Compound NOT metabolized,Compound NOT metabolized,Compound NOT metabolized,Compound NOT metabolized,Compound NOT metabolized,Compound NOT metabolized
CCN(CC)CCCC(C)Nc1c2ccc(Cl)cc2nc2ccc(OC)cc12 (stereo not given) [QUINACRINE],,Compound NOT metabolized,Compound NOT metabolized,Compound NOT metabolized,Compound NOT metabolized,Compound NOT metabolized,Compound NOT metabolized,,Compound NOT metabolized,Compound NOT metabolized,Compound NOT metabolized,,Compound NOT metabolized,Compound NOT metabolized,Compound NOT metabolized,,Compound NOT metabolized,Compound NOT metabolized,Compound NOT metabolized,Compound NOT metabolized
CCCN(CCC)CCc1cccc2c1CC(=O)N2 [ROPINIROLE],Compound NOT metabolized,Compound NOT metabolized,Compound NOT metabolized,Compound NOT metabolized,Compound NOT metabolized,Compound NOT metabolized,Compound NOT metabolized,Compound NOT metabolized,Compound NOT metabolized,Compound NOT metabolized,Compound NOT metabolized,,Compound NOT metabolized,Compound NOT metabolized,Compound NOT metabolized,,Compound NOT metabolized,Compound NOT metabolized,Compound NOT metabolized,Compound NOT metabolized
OC(CCN1CCCCC1)(c1ccccc1)C1CCCCC1 (stereo not given) [TRIHEXYPHENIDYL],Compound NOT metabolized,Compound NOT metabolized,Compound NOT metabolized,Compound NOT metabolized,Compound NOT metabolized,Compound NOT metabolized,Compound NOT metabolized,Compound NOT metabolized,,,Compound NOT metabolized,Compound NOT metabolized,Compound NOT metabolized,Compound NOT metabolized,,Compound metabolized,Compound NOT metabolized,Compound NOT metabolized,Compound NOT metabolized,Compound NOT metabolized
N#Cc1ccc2[nH]cc(CCCCN3CCN(c4ccc5oc(C(N)=O)cc5c4)CC3)c2c1 [VILAZODONE],Compound NOT metabolized,Compound NOT metabolized,Compound NOT metabolized,Compound NOT metabolized,Compound NOT metabolized,Compound NOT metabolized,Compound metabolized,Compound NOT metabolized,Compound NOT metabolized,Compound NOT metabolized,Compound NOT metabolized,,Compound metabolized,Compound NOT metabolized,Compound metabolized,,Compound metabolized,Compound metabolized,Compound metabolized,Compound metabolized
